biological target: Mcl-1 protein (UniProtKB Q07820) (Homo sapiens (Human), UniProt Q07820); assay: Inhibition of Mcl-1 by the fluorescence polarisation assay (Example A, Method A); format: binding; details: fluorescence polarization assay
In short: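 Protein (5 nM) and fluorescein-tagged peptide tracer (1 nM) incubated with 11-point compound series for 2 h at room temperature in HEPES/NaCl/Tween 20 buffer, pH 7.4, 5% DMSO. Displacement read as decrease in polarisation; IC50 fitted by 4-parameter logistic, converted to Ki (cKi or eKi).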

Sequence of Mcl-1 protein (Q07820 whole entry): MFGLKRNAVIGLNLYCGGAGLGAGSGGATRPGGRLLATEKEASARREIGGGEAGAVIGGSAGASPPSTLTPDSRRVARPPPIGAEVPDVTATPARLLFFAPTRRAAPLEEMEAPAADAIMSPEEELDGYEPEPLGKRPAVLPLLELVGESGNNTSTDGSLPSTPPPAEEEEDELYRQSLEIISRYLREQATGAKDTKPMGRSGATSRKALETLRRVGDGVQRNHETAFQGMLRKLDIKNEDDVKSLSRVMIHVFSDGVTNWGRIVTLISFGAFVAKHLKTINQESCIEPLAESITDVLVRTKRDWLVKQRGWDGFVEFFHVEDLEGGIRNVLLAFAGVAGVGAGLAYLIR

Row | SMILES | Ki [nM]
1 | O=C(O)[C@]1(Nc2cccc(Cl)c2)CC[C@]2(CC1)C(CCNc1ccccc1)=Cc1ccccc12 [Example 166, (1r,4r)-2′-(2-anilinoethyl)-4-(3-chloroanilino)spiro[cyclohexane-1,1′-indene]-4-carboxylic acid] | 688
2 | O=C(O)[C@]1(Nc2cccc(Cl)c2)CC[C@]2(CC1)C(c1cccc(C(F)(F)F)c1)=Cc1ccccc12 [Example 312, (1s,4s)-4-(3-chloroanilino)-2′-[3-(trifluoromethyl)phenyl]spiro[cyclohexane-1,1′-indene]-4-carboxylic acid] | 839
3 | O=C(O)[C@]1(Nc2cccc(Cl)c2)CC[C@@]2(CC1)c1ccccc1CC2CCCOc1ccnc2c1CCC2F (stereo partly shown) [Example 476, (1r,4r)-4-(3-chloroanilino)-2′-{3-[(7-fluoro-6,7-dihydro-5H-cyclopenta[b]pyridin-4-yl)oxy]propyl}-2′,3′-dihydrospiro[cyclohexane-1,1′-indene]-4-carboxylic acid] | 169
4 | COc1ccccc1CCOCC1=Cc2ccccc2[C@]12CC[C@@](Nc1cccc(Cl)c1)(C(=O)O)CC2 [Example 414, (1s,4s)-4-(3-chloroanilino)-2′-{[2-(2-methoxyphenyl)ethoxy]methyl}spiro[cyclohexane-1,1′-indene]-4-carboxylic acid] | 312
5 | O=C(O)[C@]1(Nc2cccc(Cl)c2)CC[C@]2(CC1)C(c1cc3ccccc3o1)=Cc1ccccc12 [Example 303, (1s,4s)-2′-(1-benzofuran-2-yl)-4-(3-chloroanilino)spiro[cyclohexane-1,1′-indene]-4-carboxylic acid] | 2260
6 | COc1ccc(CCCC2=Cc3ccccc3[C@]23CC[C@@](Nc2cccc(Cl)c2)(C(=O)O)CC3)cc1 [Example 155, (1r,4r)-4-(3-chloroanilino)-2′-[3-(4-methoxyphenyl)propyl]spiro[cyclohexane-1,1′-indene]-4-carboxylic acid] | 710
7 | COc1ccc2c(c1)[C@]1(CC[C@@](Nc3cccc(Cl)c3)(C(=O)O)CC1)C(c1cccc(C)c1)=C2 [Example 366, (1r,4r)-4-(3-chloroanilino)-6′-methoxy-2′-(3-methylphenyl)spiro[cyclohexane-1,1′-indene]-4-carboxylic acid] | 1390
8 | O=C(O)[C@]1(Nc2cccc(Cl)c2)CC[C@@]2(CC1)c1ccccc1CC2OCCCc1ccccc1 (stereo partly shown) [Example 400, (1s,4s)-4-(3-chloroanilino)-2′-(3-phenylpropoxy)-2′,3′-dihydrospiro[cyclohexane-1,1′-indene]-4-carboxylic acid] | 917
9 | O=C(O)[C@]1(Nc2cccc(Br)c2)CC[C@@]2(CC1)C(=O)Nc1ccccc12 [Example 1, (1r,4r)-4-(3-bromoanilino)-2′-oxo-1′,2′-dihydrospiro[cyclohexane-1,3′-indole]-4-carboxylic acid] | 23300
10 | COCCOc1cc(N[C@]2(C(=O)O)CC[C@@]3(CC2)C(Br)=Cc2ccccc23)ccn1 [Example 81, (1s,4s)-2′-bromo-4-{[2-(2-methoxyethoxy)pyridin-4-yl]amino}spiro[cyclohexane-1,1′-indene]-4-carboxylic acid] | 15500
11 | CC1N(C)c2ccccc2[C@]12CC[C@@](Nc1cccc(Br)c1)(C(=O)O)CC2 (stereo partly shown) [Example 24, (1s,4s)-4-(3-bromoanilino)-1′,2′-dimethyl-1′,2′-dihydrospiro[cyclohexane-1,3′-indole]-4-carboxylic acid] | 19900
12 | O=C(O)[C@]1(Nc2cccc(Cl)c2)CC[C@@]2(CC1)c1ccccc1CC2CCCOc1ccc(F)cc1 (stereo partly shown) [Example 425, (1r,4r)-4-(3-chloroanilino)-2′-[3-(4-fluorophenoxy)propyl]-2′,3′-dihydrospiro[cyclohexane-1,1′-indene]-4-carboxylic acid] | 477
13 | O=C(O)[C@]1(Nc2cccc(Cl)c2)CC[C@]2(CC1)C(C1CCC1)=Cc1ccccc12 [Example 96, (1r,4r)-4-(3-chloroanilino)-2′-cyclobutylspiro[cyclohexane-1,1′-indene]-4-carboxylic acid] | 4500

Source: patent US20240150293A1, “SPIROCYCLOHEXANE DERIVATIVES, PHARMACEUTICAL COMPOSITIONS CONTAINING THEM AND THEIR USES AS ANTI-APOPTOTIC INHIBITORS” (LES LABORATOIRES SERVIER, priority 2021, published 2024)
